In PubChem BioAssay (NCI):
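Where inhibition never reached the appropriate level, the endpoint shown equals the highest concentration tested. Otherwise, values were interpolated linearly from a five-concentration, 48-hour dose response in 96-well plates. TGI: total growth inhibition.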

Key:
Assay in all cases: growth of human tumour cells (NCI), 48 h
U251 CNS = system: U251 CNS
786-0 renal = system: 786-0 renal
SNB-75 CNS = system: SNB-75 CNS
HCC-2998 colon = system: HCC-2998 colon
A498 renal = system: A498 renal
HL-60(TB) leukemia = system: HL-60(TB) leukemia
M14 melanoma = system: M14 melanoma
UO-31 renal = system: UO-31 renal
NCI-H23 lung = system: NCI-H23 lung
MCF7 breast = system: MCF7 breast
HCT-116 colon = system: HCT-116 colon
K-562 leukemia = system: K-562 leukemia
TK-10 renal = system: TK-10 renal
SF-539 CNS = system: SF-539 CNS
MDA-MB-435 = system: MDA-MB-435
LOX IMVI melanoma = system: LOX IMVI melanoma
A549 NSCLC = system: A549 NSCLC
HOP-92 NSCLC = system: HOP-92 NSCLC
NCI-H226 lung = system: NCI-H226 lung
HCT-15 colon = system: HCT-15 colon
SN12C renal = system: SN12C renal
HT29 colon = system: HT29 colon
SK-MEL-2 melanoma = system: SK-MEL-2 melanoma
COLO 205 colon = system: COLO 205 colon
HOP-62 NSCLC = system: HOP-62 NSCLC
SK-OV-3 ovarian = system: SK-OV-3 ovarian
MOLT-4 leukemia = system: MOLT-4 leukemia
CAKI-1 renal = system: CAKI-1 renal
SW-620 colon = system: SW-620 colon
SK-MEL-5 melanoma = system: SK-MEL-5 melanoma
SK-MEL-28 melanoma = system: SK-MEL-28 melanoma
SNB-19 CNS = system: SNB-19 CNS
NCI-H522 lung = system: NCI-H522 lung
EKVX NSCLC = system: EKVX NSCLC
MDA-MB-231 breast = system: MDA-MB-231 breast
OVCAR-8 ovarian = system: OVCAR-8 ovarian
OVCAR-5 ovarian = system: OVCAR-5 ovarian
NCI/ADR-RES ovarian = system: NCI/ADR-RES ovarian
KM12 colon = system: KM12 colon
OVCAR-3 ovarian = system: OVCAR-3 ovarian
CCRF-CEM leukemia = system: CCRF-CEM leukemia
OVCAR-4 ovarian = system: OVCAR-4 ovarian
BT-549 breast = system: BT-549 breast
SF-268 CNS = system: SF-268 CNS
ACHN renal = system: ACHN renal
MDA-N = system: MDA-N
MALME-3M melanoma = system: MALME-3M melanoma
DU-145 prostate = system: DU-145 prostate
SF-295 CNS = system: SF-295 CNS
NCI-H460 lung = system: NCI-H460 lung
IGROV1 ovarian = system: IGROV1 ovarian
PC-3 prostate = system: PC-3 prostate
UACC-257 melanoma = system: UACC-257 melanoma
HS 578T breast = system: HS 578T breast
T-47D breast = system: T-47D breast
RXF 393 renal = system: RXF 393 renal
RPMI-8226 leukemia = system: RPMI-8226 leukemia
UACC-62 melanoma = system: UACC-62 melanoma
SR leukemia = system: SR leukemia

Measured: TGI

COC(=O)C1=C(\c2ccccc2)c2ccccc2C(=O)N(C2CCCCC2)/C=C\1
39.2 µM: SK-MEL-2 melanoma
64 µM: HCT-116 colon
41.5 µM: UACC-257 melanoma
68.6 µM: MALME-3M melanoma
39.8 µM: SK-MEL-28 melanoma
75.5 µM: CCRF-CEM leukemia
54.6 µM: CAKI-1 renal
45.8 µM: KM12 colon
55.9 µM: SF-539 CNS
77.4 µM: MCF7 breast
45.3 µM: HOP-62 NSCLC
79.4 µM: OVCAR-3 ovarian
45.1 µM: MDA-MB-435 | MDA-MB-231 breast
37.7 µM: LOX IMVI melanoma
24.3 µM: SK-MEL-5 melanoma
74.6 µM: BT-549 breast
28.8 µM: COLO 205 colon
62 µM: HCC-2998 colon
95.2 µM: HOP-92 NSCLC
63.1 µM: U251 CNS
65.7 µM: NCI-H460 lung
81.5 µM: NCI-H226 lung
not listed: HS 578T breast | T-47D breast | RXF 393 renal | RPMI-8226 leukemia | UACC-62 melanoma | SR leukemia
> 100 µM: all other assays above

Cc1nn(-c2ccccc2)c2[nH]c(=S)cnc12
not listed: SNB-75 CNS | HCC-2998 colon | HCT-15 colon | COLO 205 colon | SK-MEL-5 melanoma | MDA-MB-231 breast | KM12 colon | ACHN renal
> 100 µM: all other assays above
